{"source": "patent US7078022B2", "about": "“Sunscreen compositions and methods of use thereof” (Avon Products, Inc., priority 2002, dated 2006)", "key": {"[1]": {"experiment": "UV spectrum (UV absorbance, FIG. 1)", "format": "physicochemical", "source_text": "FIG. 1 is a Ultraviolet (UV) spectrum showing the UV absorbance of 3-[2-(4-diethylaminophenyl)-2-oxoethyl]thiazolium salt.\nFIG. 1 provides the UV spectrum for 3-[2-(4-diethylaminophenyl)-2-oxoethyl]thiazolium salt. […] The maximum UV absorption occurs at a wavelength of 350 nm."}, "skin": {"test_system": "skin", "experiment": "Skin elasticity and wrinkling", "settings": "no method or data given"}}, "note": "Counter-ions that a name gives are not always drawn.", "data": [{"smiles": "CCN(CC)c1ccc(C(=O)C[n+]2ccsc2)cc1", "note": "[3-[2-(4-diethylaminophenyl)-2-oxoethyl]thiazolium salt]", "values": [{"measurement": "wavelength of maximum UV absorption", "setting": "[1]", "result": 350, "unit": "nm"}, {"measurement": "UV absorbing properties", "setting": "[1]; UV-A range", "result": "excellent UV absorber, particularly in the UV-A range"}, {"measurement": "elasticity of skin", "setting": "skin", "result": "improve the elasticity"}, {"measurement": "wrinkling of skin", "setting": "skin", "result": "reduce the wrinkling of skin"}]}]}
